Consider one compound from patent publication US20100190694A1, “Methods for identifying patients who will respond well to cancer treatment” (priority 2009, published 2010).

The assay relates to advanced solid tumors. Briefly: Phase I study: efficacy by RECIST, treatment duration, TTP. The assay is classed as in vivo, human. Particulars: Pat 101-6, esophageal adenoca, before study. From the text: Phase I dose-escalation, multi-center study with the objectives to assess: • maximum tolerated dose and dose limiting toxicities (DLT) of Bel in combination with FU • impact of Bel on expression of TS, dihydropyrimidine dehydrogenase (DPD), and p21, in tumor and non-tumor surrogate tissue (peripheral blood mononuclear cells; PBMC) • preliminary anti-tumor activity of Bel in combination with FU • impact of Bel on ECG parameters • pharmacokinetics (PK) of Bel when given in combination with FU
Treatment cycles of 21 days included Bel alone in cycle 1, and Bel in combination with FU in all subsequent cycles (FIG. 4). Treatment was to continue until significant treatment-related toxicity or progressive disease. […]
DLTs, i.e. grade ¾ non-hematologic toxicities and grade 4 neutropenia or thrombocytopenia, were determined in cycles 1 and 2. Safety was assessed by NCI CTC (v. 3) and efficacy by RECIST criteria. Expression of TS, DPD, and p21 mRNA was measured by RTQ-PCR in PBMC (20 patients at baseline, and pre-dosing, 6 and 24-hours post-dosing, on days 1 and 4 in cycle 1) and in tumor biopsies (8 patients at baseline and once on days 4 or 5 in cycle 1). Results were expressed as gene expression relative to actin (i.e. TS/Actin Relative Gene Expression, DPD/Actin Relative Gene Expression, and p21/Actin Relative Gene Expression).

For `CC(=O)O[C@H]1C(=O)[C@@]2(C)[C@H]([C@H](OC(=O)c3ccccc3)[C@]3(O)C[C@H](OC(=O)[C@H](O)[C@@H](NC(=O)c4ccccc4)c4ccccc4)C(C)=C1C3(C)C)[C@]1(OC(C)=O)CO[C@@H]1C[C@@H]2O` [paclitaxel], the “TTP on most recent prior line of therapy” value is recorded as “(12.0 weeks)”.
